Experiments:
5-lipoxygenase = biological target: T1, 5-lipoxygenase (Rattus norvegicus, UniProt P12527); test: 5-Lipoxygenase inhibition (5-HETE radioimmunoassay); type: biochemical; settings: crude enzyme from RBL-1 cells, read-out: Percent Inhibition (5-lipoxygenase)
T1 construct: crude 5-lipoxygenase enzyme from rat basophilic leukemia cells (RBL-1); endogenous in cells; host or cells: RBL-1 (rat basophilic leukemia cells), crude enzyme
T1 sequence (P12527 1-673): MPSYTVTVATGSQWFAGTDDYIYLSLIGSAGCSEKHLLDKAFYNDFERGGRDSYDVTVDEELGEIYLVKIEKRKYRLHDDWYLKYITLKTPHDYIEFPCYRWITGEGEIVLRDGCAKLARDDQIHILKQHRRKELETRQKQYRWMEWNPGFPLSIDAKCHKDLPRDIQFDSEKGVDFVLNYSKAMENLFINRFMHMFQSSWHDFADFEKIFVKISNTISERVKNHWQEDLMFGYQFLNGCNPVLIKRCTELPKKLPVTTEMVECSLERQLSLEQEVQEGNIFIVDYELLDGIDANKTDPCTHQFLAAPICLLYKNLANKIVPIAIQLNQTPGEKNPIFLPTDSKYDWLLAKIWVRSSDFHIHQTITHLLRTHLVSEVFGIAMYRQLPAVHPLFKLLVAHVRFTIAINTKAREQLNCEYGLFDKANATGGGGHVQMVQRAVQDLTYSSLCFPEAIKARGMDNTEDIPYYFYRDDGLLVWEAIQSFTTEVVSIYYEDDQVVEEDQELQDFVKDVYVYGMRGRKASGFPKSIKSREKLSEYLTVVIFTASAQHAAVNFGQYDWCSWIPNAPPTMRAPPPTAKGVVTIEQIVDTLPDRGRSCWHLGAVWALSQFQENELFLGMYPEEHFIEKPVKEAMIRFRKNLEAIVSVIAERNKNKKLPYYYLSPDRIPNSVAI
Protocol: 5-Lipoxygenase catalyzes the oxidative metabolism of arachidonic acid to 5-hydroperoxyeicosatetraenoid acid ([…]), the initial reaction leading to the formation of the leukotrienes^18. Accordingly, compounds inhibiting 5-lipoxygenase activity are art recognized to have anti-inflammatory properties.
The ability of test compounds to inhibit 5-lipoxygenase activity was determined in assays^19 using crude 5-lipoxygenase enzyme from rat basophilic leukemia cells (RBL-1). Test compounds are pre-incubated with the enzyme for 5 minutes at room temperature and the reaction is initiated by addition of substrate (arachidonic acid). Following an 8 minute incubation at room temperature, the reaction is terminated by addition of citric acid, and levels of 5-HETE determined by 5-HETE radioimmunoassay.

293 751 SWE cells = test: Cytotoxicity (MTT) in 293 751 SWE cells; type: cell-based, human; settings: concentration not given
Procedure, shortened: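 Used HEK293 cells stably expressing APP751 carrying the Swedish double mutation (K651N/M652L), plated at 1.5-2.5×10^4 cells/well in DMEM + 10% FBS. MTT was added to a final 1 mg/mL for 1 h at 37 °C, then lysed in SDS/DMF (pH 4.7) overnight. Viability was read as OD562 − OD650.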

[1] = system: β-amyloid peptide production; test: Cellular screen for inhibitors of β-amyloid production (ELISA, 293 751 SWE cells); type: cell-based, human; settings: 2 h pretreatment + 2 h, normalized for cytotoxicity (MTT), concentration not given
Procedure, shortened: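 293 751 SWE cells (K293 stably expressing APP751 Swedish mutant) pretreated 2 h with compound, then fresh compound-containing medium for 2 h more at 37 °C. Secreted β-amyloid in conditioned medium quantified by sandwich ELISA (capture 266 anti-Aβ13-28, labelled 6C6 anti-Aβ1-16) against a standard curve as ng/mL; mean ± SD of ≥6 replicates.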

Ultraviolet absorption = type: physicochemical; settings: 0.1 mg/mL in methanol, 1 cm quartz cuvette
Protocol: The ultraviolet (UV) absorption properties of two representative substituted 3-indolyl-5-pyrazolones were evaluated and compared to indomethacin [1-(4-chlorobenzoyl)-5-methoxy-2-methyl-^1 H-indole-3-acetic acid], a compound known to absorb UV light (See page 4855 of the Merck Index, 10th Edition, Windholz, et al. Editor (1983)). Specifically, 0.1 mg/mL of 3-indolyl-5-pyrazolone (Ex. 9 or 33) or indomethacin in methanol was added to a quartz cuvette (1 cm) and the UV absorption of this solution was then measured at a wavelength of from 200 nm to 800 nm (Examples 9 and 33) and from 190 nm to 800 nm.

rat cortical neurons = test: Inhibition of toxicity of β-amyloid peptide to rat neuronal cells (alamarBlue); type: cell-based; settings: 10 to 20 μM β-amyloid peptide, 2-3 days; on average where more than one duplicate experiment; compound concentration not stated
Protocol: (§1) The purpose of this test is to determine the effect of 3-indolyl-5-pyrazolone compounds on the toxicity of β-amyloid peptide to neuronal cells.
Primary rat cortical cultures were established from 18 day rat fetuses. Cortical tissue was dissociated by incubation in a trypsin/EDTA solution (0.05% trypsin+0.53 mM EDTA in HBSS; GIBCO Laboratories, Grand Island, N.Y., USA) for 20 minutes at 37° C. The trypsin was then inactivated by resuspending the cells in serum-containing medium (DMEM/FBS): Dulbecco's Modified Eagles' Medium (DMEM) containing 4.5 g/L glucose, 1 mM sodium pyruvate, 1 mM glutamine, 100 Units/mL penicillin, 100 μg/mL streptomycin, and supplemented with 10% heat-inactivated fetal bovine serum (GIBCO Laboratories, Grand Island, N.Y., USA). Cells were then pelleted by centrifugation and resuspended in a chemically-defined medium (DMEM/B27: DMEM containing B27 supplement; GIBCO Laboratories, Grand Island, N.Y., USA) in place of FBS. Polyethyleneimine (PEI; Sigma Chemical Company, St. Louis, Mo., USA)-coated 6.4 mm (96-well) dishes were timed once with DMEM/FBS, and then seeded at 0.75 to 1.25×10^5 cells per well in 0.1 mL DMEM/B27. Cultures were maintained in a H2 O-saturated incubator with an atmosphere of 90% air/10% CO2 at 37° C. Cell viability was visually assessed by phase contrast microscopy and quantified by measuring the reduction of alamarBlue™ (Alamar biosciences, Inc., Sacramento, Calif., USA) as described below. Serum replacement with B27 supplement yields nearly pure neuronal cultures as judged by immunocytochemistry for glial fibrillary acidic protein and neuron-specific enolase (Brewer, et al.^20)
(§2) β-amyloid peptide stock solutions were prepared as 1 mM stocks in sterile, doubly distilled water immediately prior to addition to cultures. Rat cortical neurons were exposed to β-amyloid peptide by removing the culture medium and replacing it with DMEM/N2 (GIBCO Laboratories,Grand Island, N.Y., USA) containing 10 to 20 μM β-amyloid peptide. Human cortical neurons were exposed to test compound plus β-amyloid peptide by removing the culture medium and replacing it with MEM containing 50 μM β-amyloid peptide. Cultures were maintained for 2-3 days before neuronal survival was quantified using alamarBlue™.
(§3) The alamarBlue™ assay incorporates a fluorometric/colorimetric metabolic indicator (Alamar Biosciences, Inc. Sacramento, Calif., USA). Viable cells convert alamarBlue™ from an oxidized (non-fluorescent, blue) form to a reduced (fluorescent, red) form. Assays were preformed by replacing the culture media with a 10% alamarBlue™ solution in DMEM (rat cortical cultures) or MEM (human cortical cultures).

human cortical neurons = test: Inhibition of toxicity of β-amyloid peptide to human neuronal cells (alamarBlue); type: cell-based; settings: 50 μM β-amyloid peptide, 2-3 days; on average where more than one duplicate experiment; compound concentration not stated
Protocol: as §1
Primary Human Cortical Cell Culture
Primary human cortical cultures were prepared using a modification of the procedure described by Seubert, et al.^21 Following filtration through Nitex nylon screens, cortical tissue was resuspended in a trypsin/EDTA solution (0.05% trypsin+0.53 mM EDTA in HBSS; GIBCO Laboratories, Grand Island, N.Y., USA) and kept at 37° C. for 20 minutes. The trypsin was then inactivated by resuspending the cells in serum-containing medium (MEM/FBS: Modified Eagles' Medium (MEM) containing 1% glucose, 1 mM sodium pyruvate, 1 mM glutamine, and supplemented with 10% fetal bovine serum (GIBCO). Cells were then pelleted by centrifugation and resuspended in a chemically-defined medium (MEM/B27: MEM containing B27 supplement in place of FBS; GIBCO). Polyethyleneimine (PEI; Sigma Chemical Company, St. Louis, Mo., USA)-coated 6.4 mm (96-well) dishes were rinsed once with MEM/FBS, and then seeded at 0.75 to 1.25×10^5 cells per well in 0.1 mL MEM/B27. Cultures were maintained in a H2 O-saturated incubator with an atmosphere of 95% air/5% CO 2 at 37° C. The culture medium was exchanged twice weekly. Cell viability was visually assessed by phase contrast microscopy and quantified by measuring the reduction of alamarBlue™ (Alamar Biosciences, Inc., Sacramento, Calif., USA).
as §2, §3

| SMILES | inhibition at 6 µM (5-lipoxygenase; 6 μM compound) | Abs (at λmax) (Ultraviolet absorption) | E = Extinction coefficient (Ultraviolet absorption) | λmax (Ultraviolet absorption) | λother (shoulder) (Ultraviolet absorption) | inhibition at 7.5 µM (5-lipoxygenase; 7.5 μM compound) | cytotoxic effect on the 293 751 SWE cells (293 751 SWE cells) | reduction of β-amyloid peptide production as compared to control [1] | inhibition of the toxicity of β-amyloid peptide to rat neuronal cells (rat cortical neurons) | inhibition of the toxicity of β-amyloid peptide to human neuronal cells (human cortical neurons) |
| --- | --- | --- | --- | --- | --- | --- | --- | --- | --- | --- |
| COc1ccc2c(c1)c(CC1=NN(c3ccc(Cl)c(Cl)c3)C(=O)C1)c(C)n2C(=O)c1ccc(Cl)cc1 [Example 33, 3-[1-(4-chlorobenzoyl)-5-methoxy-2-methyl-3-indolylmethyl]-1-(3,4-dichlorophenyl)-5-pyrazolone] | – | 2.3458 | 23.46 AU/mg/mL/cm | 254 nm | 318 nm | – | did not have a significant cytotoxic effect | at least 20% | at least 10% | at least 25% |
| COc1ccc2c(c1)c(CC1=NN(c3ccc(C)cc3)C(=O)C1)c(C)n2C(=O)c1ccc(Cl)cc1 [Example 34, 3-[1-(4-chlorobenzoyl)-5-methoxy-2-methyl-3-indolylmethyl]-1-(4-methylphenyl)-5-pyrazolone] | – | – | – | – | – | – | did not have a significant cytotoxic effect | at least 20% | at least 10% | at least 25% |
| COc1ccc2c(c1)c(CC(=O)O)c(C)n2C(=O)c1ccc(Cl)cc1 [indomethacin, 1-(4-chlorobenzoyl)-5-methoxy-2-methyl-^1 H-indole-3-acetic acid, reference compound] | – | 2.3996 | 23.99 AU/mg/mL/cm | 246 nm | 318 nm | – | – | – | – | – |

Further lines, with some results ahead:

| inhibition at 6 µM (5-lipoxygenase; 6 μM compound) | Abs (at λmax) (Ultraviolet absorption) | E = Extinction coefficient (Ultraviolet absorption) | λmax (Ultraviolet absorption) | λother (shoulder) (Ultraviolet absorption) | inhibition at 7.5 µM (5-lipoxygenase; 7.5 μM compound) | SMILES | cytotoxic effect on the 293 751 SWE cells (293 751 SWE cells) | reduction of β-amyloid peptide production as compared to control [1] | inhibition of the toxicity of β-amyloid peptide to rat neuronal cells (rat cortical neurons) | inhibition of the toxicity of β-amyloid peptide to human neuronal cells (human cortical neurons) |
| --- | --- | --- | --- | --- | --- | --- | --- | --- | --- | --- |
| 75% | 2.3299 | 23.29 AU/mg/mL/cm | 251 nm | 318 nm | – | COc1ccc2c(c1)c(CC1=NN(C3CCCCC3)C(=O)C1)c(C)n2C(=O)c1ccc(Cl)cc1 [Example 9, 3-[1-(4-chlorobenzoyl)-5-methoxy-2-methyl-3-indolylmethyl]-1-cyclohexyl-5-pyrazolone] | did not have a significant cytotoxic effect | at least 20% | – | – |
| – | – | – | – | – | 48% | COc1ccc2c(c1)c(CC1=NN(C(C)(C)C)C(=O)C1)c(C)n2C(=O)c1ccc(Cl)cc1 [Example 14, 3-[1-(4-chlorobenzoyl)-5-methoxy-2-methyl-3-indolylmethyl]-1-t-butyl-5-pyrazolone] | did not have a significant cytotoxic effect | at least 20% | – | – |
